Values quoted from earlier work in patent publication US10722577B2, “Methods for treating GI syndrome and graft versus host disease” (Sloan Kettering Institute for Cancer Research, priority 2012, dated 2020).

Tested on: in vitro models of GvHD
Conditions: previous work, U.S. Ser. No. 12/599,280; cited from earlier work

C[C@@H]1[C@H](O)[C@@H](C)/C=C/C=C/CC/C=C/C=C/C=C/C=C/C(O[C@H]2O[C@H](C)[C@@H](O)[C@H](N)[C@@H]2O)CC2O[C@](O)(CC(O)C(O)CCC(O)CC(O)CC(O)CC(=O)O[C@H]1C)CC(O)C2C(=O)O (stereo partly shown) [nystatin]
apoptosis in in vitro models of GvHD: beneficial effects in reducing apoptosis
